Assay results: ChEMBL document CHEMBL5055664, “A Novel Anticancer Stem Cell Compound Derived from Pleuromutilin Induced Necroptosis of Melanoma Cells” (J Med Chem, 2021)
In brackets after ≈: the same amount, converted by molar mass. Each block holds one molecule with its values, some of them ahead of it. Activity calls are given as the source filed them. The calls are words filed in the database; no cut-off is given here.

Legend:
[1] = system: A-375; assay: Anticancer activity against human A-375 cancer stem cells assessed as CD44+CD133+ marker cells at […] measured after 30 hrs by FITC/APC staining based flow cytometry (reference value: […]); format: functional; settings: dose 2.5 µM
[2] = system: B16-F10; assay: Anticancer activity against mouse B16-F10 cancer stem cells assessed as CD44+CD24+ marker cells at 1.25 uM measured after 30 hrs by FITC/APC staining based flow cytometry (reference value: […]); format: functional
[3] = system: B16-F10; assay: Anticancer activity against mouse B16-F10 cancer stem cells assessed as CD44+CD24+ marker cells at […] measured after 30 hrs by FITC/APC staining based flow cytometry (reference value: […]); format: functional; settings: dose 2.5 µM
[4] = system: A-375; assay: Anticancer activity against human A-375 cancer stem cells assessed as CD44+CD133+ marker cells at 1.25 uM measured after 30 hrs by FITC/APC staining based flow cytometry (reference value: […]); format: functional
[5] = system: B16-F10; assay: Anticancer activity against mouse B16-F10 cancer stem cells assessed as CD44+CD24+ marker cells at 5 uM measured after 30 hrs by FITC/APC staining based flow cytometry (reference value: […]); format: functional
[6] = system: A-375; assay: Anticancer activity against human A-375 cancer stem cells assessed as CD44+CD133+ marker cells at 5 uM measured after 30 hrs by FITC/APC staining based flow cytometry (reference value: […]); format: functional
[7] = system: A-375; assay: Cytotoxicity against human A-375 cells assessed as inhibition of cell growth measured after 72 hrs by MTT assay; format: functional, cell-based; settings: A-375, 72 h
[8] = system: 4T1; assay: Cytotoxicity against mouse 4T1 cells assessed as inhibition of cell growth measured after 72 hrs by MTT assay; format: functional, cell-based; settings: 4T1, 72 h
[9] = system: B16-F10; assay: Cytotoxicity against mouse B16-F10 cells assessed as inhibition of cell growth measured after 72 hrs by MTT assay; format: functional, cell-based; settings: B16-F10, 72 h
[10] = system: Escherichia coli; assay: Antimicrobial activity against Escherichia coli assessed as bacterial growth inhibition; format: functional
[11] = system: CT26; assay: cells; settings: Mus musculus, CT26, 72 h
[12] = system: HCT-116; assay: cells; settings: Homo sapiens, HCT-116, 72 h
[13] = system: Staphylococcus aureus; assay: Antimicrobial activity against Staphylococcus aureus assessed as bacterial growth inhibition; format: functional
[14] = system: Bacillus subtilis; assay: Antimicrobial activity against Bacillus subtilis assessed as bacterial growth inhibition; format: functional
[15] = system: Kasumi 1; assay: cells; settings: Homo sapiens, Kasumi 1, 72 h
[16] = system: B16-F10; assay: Induction of morphological changes in mouse B16-F10 cells assessed as formation of apoptotic bodies at 0.5 to […] measured after 48 hrs by AnnexinV-FITC/propidium iodide staining based flow cytometry; format: functional, cell-based; settings: dose 0.5-2.5 µM
[17] = system: B16-F10; assay: Induction of secondary necrosis in mouse B16-F10 cells at 0.5 to […] measured after 48 hrs by AnnexinV-FITC/propidium iodide staining based flow cytometry; format: functional, cell-based; settings: dose 0.5-2.5 µM
[18] = Half life in Sprague-Dawley rat at 20 mg/kg, iv by LC-MS/MS analysis; format: ADME, organism-based; settings: in vivo
[19] = MRT (0 to t) in Sprague-Dawley rat at 20 mg/kg, iv by LC-MS/MS analysis; format: ADME, organism-based; settings: in vivo
[20] = Cmax in Sprague-Dawley rat at 20 mg/kg, iv by LC-MS/MS analysis; format: ADME, organism-based; parameters: dose 20 mg/kg, route iv; settings: in vivo
[21] = Half life in Sprague-Dawley rat at 50 mg/kg, po by LC-MS/MS analysis; format: ADME, organism-based; settings: in vivo
[22] = Cmax in Sprague-Dawley rat at 50 mg/kg, po by LC-MS/MS analysis; format: ADME, organism-based; parameters: dose 50 mg/kg, route po; settings: in vivo
[23] = Tmax in Sprague-Dawley rat at 50 mg/kg, po by LC-MS/MS analysis; format: ADME, organism-based; settings: in vivo
[24] = Tmax in Sprague-Dawley rat at 20 mg/kg, iv by LC-MS/MS analysis; format: ADME, organism-based; settings: in vivo
[25] = MRT (0 to t) in Sprague-Dawley rat at 50 mg/kg, po by LC-MS/MS analysis; format: ADME, organism-based; settings: in vivo
[26] = Oral bioavailability in Sprague-Dawley rat at 50 mg/kg by LC-MS/MS analysis; format: ADME, organism-based; settings: in vivo

SMILES: CC(=O)O[C@H]1C(=O)[C@@]2(C)[C@H]([C@H](OC(=O)c3ccccc3)[C@]3(O)C[C@H](OC(=O)[C@H](O)[C@@H](NC(=O)c4ccccc4)c4ccccc4)C(C)=C1C3(C)C)[C@]1(OC(C)=O)CO[C@@H]1C[C@@H]2O [PACLITAXEL]
Activity [1]: 19.3%
Activity [2]: 11.3%
Activity [3]: 12.5%
Activity [4]: 18.1%
Activity [5]: 24%
Activity [6]: 20%

MIC [10]: 50 µg/mL (≈ 132 µM)
IC50 [11]: > 100 µM
IC50 [12]: > 100 µM
MIC [13]: 10 µg/mL (≈ 26.4 µM)
MIC [14]: 100 µg/mL (≈ 264 µM)
IC50 [15]: > 100 µM
SMILES: C=C[C@]1(C)C[C@@H](OC(=O)CO)[C@]2(C)[C@H](C)CC[C@]3(CCC(=O)[C@H]32)[C@@H](C)[C@@H]1O [PLEUROMULIN]
IC50 [7]: > 100 µM
IC50 [8]: > 100 µM
IC50 [9]: > 100 µM

IC50 [11]: > 10 µM
IC50 [12]: 9.37 µM
IC50 [15]: 2.45 µM
SMILES: C=C[C@]1(C)C[C@@H](O)[C@]2(C)[C@H](C)CC[C@]3(CC(=C)C(=O)[C@H]32)[C@@H](C)[C@@H]1OC(=O)Cc1ccc(F)cc1
IC50 [7]: 5.73 µM
IC50 [8]: > 10 µM
IC50 [9]: 2.31 µM

SMILES: COc1cccc2c1C(=O)c1c(O)c3c(c(O)c1C2=O)C[C@@](O)(C(=O)CO)C[C@@H]3O[C@H]1C[C@H](N)[C@H](O)[C@H](C)O1
Activity [16]: Active
Activity [17]: Active

half-life [18]: 1.33 h
MRT last [19]: 2.91 h
Cmax [20]: 3400 ng/mL
half-life [21]: 6.54 h
Cmax [22]: 3650 ng/mL
Tmax [23]: 2.67 h
Tmax [24]: 4.98 min
MRT last [25]: 4.71 h
bioavailability [26]: 88%
SMILES: C=C[C@]1(C)C[C@@H](OC(=O)c2ccc(C(F)(F)F)cn2)[C@]2(C)[C@H](C)CC[C@]3(CC(=C)C(=O)[C@H]32)[C@@H](C)[C@@H]1OC(=O)c1ccc(C(F)(F)F)cn1
